Reference: ChEMBL document CHEMBL3991601, “The target landscape of clinical kinase drugs” (Science, 2017)
Activity calls are given as the source filed them.

Assays:
[1] = molecular target: Protein-tyrosine kinase 2-beta (Homo sapiens, UniProt Q14289)
[2] = molecular target: T1, Serine/threonine-protein kinase ULK3 (Homo sapiens, UniProt Q6PHR2)
T1 sequence (Q6PHR2 whole entry): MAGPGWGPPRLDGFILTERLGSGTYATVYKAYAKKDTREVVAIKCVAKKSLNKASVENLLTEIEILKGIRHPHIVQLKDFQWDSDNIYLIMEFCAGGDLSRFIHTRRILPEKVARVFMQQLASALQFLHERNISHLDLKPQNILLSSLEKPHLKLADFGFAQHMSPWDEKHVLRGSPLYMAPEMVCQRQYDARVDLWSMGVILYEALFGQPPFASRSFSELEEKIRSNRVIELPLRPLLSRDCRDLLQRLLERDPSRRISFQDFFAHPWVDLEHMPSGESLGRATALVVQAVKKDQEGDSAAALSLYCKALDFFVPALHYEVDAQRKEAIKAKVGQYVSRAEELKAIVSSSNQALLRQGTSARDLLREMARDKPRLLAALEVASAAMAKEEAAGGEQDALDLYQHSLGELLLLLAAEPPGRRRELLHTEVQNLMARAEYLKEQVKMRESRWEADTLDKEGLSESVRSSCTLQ

[3] = molecular target: Serine/threonine-protein kinase 16 (Homo sapiens, UniProt O75716)
[4] = molecular target: Casein kinase I isoform delta (Homo sapiens, UniProt P48730)
[5] = molecular target: T2, Mitogen-activated protein kinase kinase kinase 6 (Homo sapiens, UniProt O95382)
T2 sequence (O95382 whole entry): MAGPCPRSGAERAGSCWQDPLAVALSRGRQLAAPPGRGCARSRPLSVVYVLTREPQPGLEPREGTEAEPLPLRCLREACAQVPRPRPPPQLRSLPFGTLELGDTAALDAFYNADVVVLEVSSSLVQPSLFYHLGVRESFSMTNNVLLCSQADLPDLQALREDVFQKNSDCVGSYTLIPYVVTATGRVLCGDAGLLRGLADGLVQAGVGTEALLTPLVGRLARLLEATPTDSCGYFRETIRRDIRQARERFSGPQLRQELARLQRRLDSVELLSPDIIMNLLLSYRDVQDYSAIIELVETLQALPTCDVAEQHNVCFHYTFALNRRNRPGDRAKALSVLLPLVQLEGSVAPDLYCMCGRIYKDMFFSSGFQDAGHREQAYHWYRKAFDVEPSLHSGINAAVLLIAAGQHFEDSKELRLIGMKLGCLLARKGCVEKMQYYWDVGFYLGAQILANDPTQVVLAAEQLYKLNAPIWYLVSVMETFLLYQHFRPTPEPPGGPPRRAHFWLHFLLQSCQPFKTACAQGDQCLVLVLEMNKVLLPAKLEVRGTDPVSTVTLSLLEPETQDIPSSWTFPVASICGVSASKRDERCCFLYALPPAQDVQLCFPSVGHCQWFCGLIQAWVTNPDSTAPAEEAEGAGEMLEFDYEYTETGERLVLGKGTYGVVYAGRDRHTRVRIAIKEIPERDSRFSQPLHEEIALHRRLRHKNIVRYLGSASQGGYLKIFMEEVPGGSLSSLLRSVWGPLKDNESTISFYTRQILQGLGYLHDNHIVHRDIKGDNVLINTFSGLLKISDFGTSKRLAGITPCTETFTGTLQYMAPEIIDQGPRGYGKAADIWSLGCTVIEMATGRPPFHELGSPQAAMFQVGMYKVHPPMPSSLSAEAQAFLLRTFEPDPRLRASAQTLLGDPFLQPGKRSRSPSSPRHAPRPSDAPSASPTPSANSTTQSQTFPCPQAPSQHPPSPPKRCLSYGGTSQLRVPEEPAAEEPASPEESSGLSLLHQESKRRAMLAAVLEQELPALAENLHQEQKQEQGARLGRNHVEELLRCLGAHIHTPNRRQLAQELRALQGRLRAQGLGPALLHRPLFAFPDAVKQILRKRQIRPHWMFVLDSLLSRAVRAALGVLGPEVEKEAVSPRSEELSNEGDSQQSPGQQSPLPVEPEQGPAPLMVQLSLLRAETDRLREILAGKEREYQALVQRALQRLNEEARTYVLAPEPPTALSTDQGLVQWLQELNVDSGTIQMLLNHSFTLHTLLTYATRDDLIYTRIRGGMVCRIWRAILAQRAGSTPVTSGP

[6] = molecular target: T3, MAP kinase-activated protein kinase 5 (Homo sapiens, UniProt Q8IW41)
T3 sequence (Q8IW41 whole entry): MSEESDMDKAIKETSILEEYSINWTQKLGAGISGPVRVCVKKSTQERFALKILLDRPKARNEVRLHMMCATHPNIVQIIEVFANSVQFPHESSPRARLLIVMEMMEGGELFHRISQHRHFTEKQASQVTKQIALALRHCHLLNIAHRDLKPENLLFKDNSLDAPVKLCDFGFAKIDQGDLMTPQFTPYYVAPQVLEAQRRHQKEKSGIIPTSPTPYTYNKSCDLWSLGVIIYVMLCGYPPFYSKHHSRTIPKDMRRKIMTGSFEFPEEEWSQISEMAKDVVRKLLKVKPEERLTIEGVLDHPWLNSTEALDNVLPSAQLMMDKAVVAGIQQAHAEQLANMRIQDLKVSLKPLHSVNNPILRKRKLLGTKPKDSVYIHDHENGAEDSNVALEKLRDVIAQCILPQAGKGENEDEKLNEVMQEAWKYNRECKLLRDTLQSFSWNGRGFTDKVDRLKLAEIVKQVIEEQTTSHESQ

[7] = molecular target: Insulin-like growth factor 1 receptor (Homo sapiens, UniProt P08069)
[8] = molecular target: Mitogen-activated protein kinase 8 (Homo sapiens, UniProt P45983)
[9] = molecular target: Insulin receptor (Homo sapiens, UniProt P06213)
[10] = molecular target: Mitogen-activated protein kinase 3 (Homo sapiens, UniProt P27361)
[11] = molecular target: Tyrosine-protein kinase CSK (Homo sapiens, UniProt P41240)
[12] = molecular target: Elongation factor Tu, mitochondrial (Homo sapiens, UniProt P49411)
[13] = molecular target: GTP-binding protein 4 (Homo sapiens, UniProt Q9BZE4)
Also: in the data inactive means no Kd found up to 30 µM.

Casein kinase I isoform delta, sequence (P48730 whole entry, canonical isoform): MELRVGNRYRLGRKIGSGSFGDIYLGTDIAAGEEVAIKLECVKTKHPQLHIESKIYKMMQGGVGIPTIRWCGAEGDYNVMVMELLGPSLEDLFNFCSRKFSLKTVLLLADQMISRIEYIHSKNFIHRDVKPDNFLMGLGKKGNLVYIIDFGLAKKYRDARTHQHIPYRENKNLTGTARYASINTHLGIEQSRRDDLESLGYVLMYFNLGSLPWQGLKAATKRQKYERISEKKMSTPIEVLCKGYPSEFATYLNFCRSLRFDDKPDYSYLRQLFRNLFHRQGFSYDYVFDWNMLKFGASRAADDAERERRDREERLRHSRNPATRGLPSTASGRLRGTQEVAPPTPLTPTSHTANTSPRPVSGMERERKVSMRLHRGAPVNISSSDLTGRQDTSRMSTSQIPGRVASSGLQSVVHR
Serine/threonine-protein kinase 16, sequence (O75716 whole entry, canonical isoform): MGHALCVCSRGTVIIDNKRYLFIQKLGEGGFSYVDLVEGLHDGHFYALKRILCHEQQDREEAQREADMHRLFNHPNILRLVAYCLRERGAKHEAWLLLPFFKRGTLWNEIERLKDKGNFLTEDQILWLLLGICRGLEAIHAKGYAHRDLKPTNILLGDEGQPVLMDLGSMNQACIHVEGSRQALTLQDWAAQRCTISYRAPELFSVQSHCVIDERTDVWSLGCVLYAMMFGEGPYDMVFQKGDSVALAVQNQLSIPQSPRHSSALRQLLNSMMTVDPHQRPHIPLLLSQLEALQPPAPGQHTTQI
Insulin-like growth factor 1 receptor, sequence (P08069 31-736 limits assumed): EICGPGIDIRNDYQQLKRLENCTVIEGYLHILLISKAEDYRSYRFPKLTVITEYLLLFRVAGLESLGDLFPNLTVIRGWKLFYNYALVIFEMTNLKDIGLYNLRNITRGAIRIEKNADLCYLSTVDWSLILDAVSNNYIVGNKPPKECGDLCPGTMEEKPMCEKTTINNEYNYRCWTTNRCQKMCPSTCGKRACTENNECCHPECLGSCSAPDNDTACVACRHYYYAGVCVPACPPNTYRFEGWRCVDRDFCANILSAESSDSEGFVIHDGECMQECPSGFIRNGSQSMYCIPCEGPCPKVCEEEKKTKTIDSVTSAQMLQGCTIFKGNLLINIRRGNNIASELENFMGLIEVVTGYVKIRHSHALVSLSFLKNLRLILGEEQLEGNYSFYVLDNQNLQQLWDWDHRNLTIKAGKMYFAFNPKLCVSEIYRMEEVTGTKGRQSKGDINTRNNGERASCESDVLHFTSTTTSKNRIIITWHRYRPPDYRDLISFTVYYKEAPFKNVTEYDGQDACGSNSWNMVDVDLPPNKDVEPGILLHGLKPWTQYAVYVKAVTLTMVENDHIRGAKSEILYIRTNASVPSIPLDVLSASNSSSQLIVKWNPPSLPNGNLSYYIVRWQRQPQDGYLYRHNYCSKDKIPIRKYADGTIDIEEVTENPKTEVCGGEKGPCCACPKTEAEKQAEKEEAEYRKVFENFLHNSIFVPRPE
Insulin-like growth factor 1 receptor, sequence (P08069 741-1367 limits assumed): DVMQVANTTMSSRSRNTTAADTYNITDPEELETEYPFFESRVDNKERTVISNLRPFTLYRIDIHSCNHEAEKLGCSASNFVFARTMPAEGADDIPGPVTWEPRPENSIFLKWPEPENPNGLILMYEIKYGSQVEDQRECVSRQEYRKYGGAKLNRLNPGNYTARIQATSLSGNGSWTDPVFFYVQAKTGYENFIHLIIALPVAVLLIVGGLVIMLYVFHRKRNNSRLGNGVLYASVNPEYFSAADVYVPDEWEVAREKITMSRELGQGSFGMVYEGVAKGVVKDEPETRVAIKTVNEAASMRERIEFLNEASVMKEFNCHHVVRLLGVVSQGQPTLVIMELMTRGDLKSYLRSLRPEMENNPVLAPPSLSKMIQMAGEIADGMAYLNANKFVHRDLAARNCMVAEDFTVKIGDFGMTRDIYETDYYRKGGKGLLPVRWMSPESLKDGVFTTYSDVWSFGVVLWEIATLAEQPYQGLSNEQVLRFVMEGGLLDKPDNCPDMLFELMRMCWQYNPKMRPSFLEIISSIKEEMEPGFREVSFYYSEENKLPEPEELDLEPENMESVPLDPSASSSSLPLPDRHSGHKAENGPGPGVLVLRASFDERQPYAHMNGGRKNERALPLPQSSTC
Insulin receptor, sequence (P06213 28-758 limits assumed): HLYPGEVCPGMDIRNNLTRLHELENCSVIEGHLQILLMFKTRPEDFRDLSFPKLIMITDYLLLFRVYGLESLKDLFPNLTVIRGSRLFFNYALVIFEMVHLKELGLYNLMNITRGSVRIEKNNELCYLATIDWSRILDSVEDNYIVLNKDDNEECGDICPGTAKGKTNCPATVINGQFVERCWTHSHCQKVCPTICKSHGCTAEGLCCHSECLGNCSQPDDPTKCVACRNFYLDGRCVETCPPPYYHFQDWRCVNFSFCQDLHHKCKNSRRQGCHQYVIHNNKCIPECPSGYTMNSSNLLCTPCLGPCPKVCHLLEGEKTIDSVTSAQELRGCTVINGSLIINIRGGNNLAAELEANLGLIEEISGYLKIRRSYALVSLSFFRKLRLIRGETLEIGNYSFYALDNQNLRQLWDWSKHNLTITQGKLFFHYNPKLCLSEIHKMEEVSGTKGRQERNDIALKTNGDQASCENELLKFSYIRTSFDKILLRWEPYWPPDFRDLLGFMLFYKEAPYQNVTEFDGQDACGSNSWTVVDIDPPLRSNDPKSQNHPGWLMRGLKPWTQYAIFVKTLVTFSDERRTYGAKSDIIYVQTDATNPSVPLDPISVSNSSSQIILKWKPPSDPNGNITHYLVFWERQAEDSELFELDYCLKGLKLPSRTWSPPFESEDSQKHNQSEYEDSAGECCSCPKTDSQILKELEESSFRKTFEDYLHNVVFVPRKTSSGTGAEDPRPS
Insulin receptor, sequence (P06213 763-1382 limits assumed): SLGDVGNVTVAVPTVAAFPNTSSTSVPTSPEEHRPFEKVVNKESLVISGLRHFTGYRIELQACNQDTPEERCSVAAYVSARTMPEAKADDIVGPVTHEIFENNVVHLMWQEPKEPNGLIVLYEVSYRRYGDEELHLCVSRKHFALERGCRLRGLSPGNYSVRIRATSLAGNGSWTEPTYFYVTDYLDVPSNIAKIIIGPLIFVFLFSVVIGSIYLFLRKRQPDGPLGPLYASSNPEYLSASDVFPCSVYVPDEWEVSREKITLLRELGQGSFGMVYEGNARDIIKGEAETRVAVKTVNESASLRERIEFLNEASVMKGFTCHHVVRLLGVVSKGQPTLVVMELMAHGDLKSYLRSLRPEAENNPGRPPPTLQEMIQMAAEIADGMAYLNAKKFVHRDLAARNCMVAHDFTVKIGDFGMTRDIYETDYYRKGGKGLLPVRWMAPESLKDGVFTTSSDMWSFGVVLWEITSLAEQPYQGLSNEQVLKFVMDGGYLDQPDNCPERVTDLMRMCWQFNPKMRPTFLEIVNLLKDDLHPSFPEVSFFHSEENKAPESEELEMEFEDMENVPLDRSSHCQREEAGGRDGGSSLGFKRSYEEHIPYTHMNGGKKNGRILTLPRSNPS
Mitogen-activated protein kinase 8, sequence (P45983 whole entry): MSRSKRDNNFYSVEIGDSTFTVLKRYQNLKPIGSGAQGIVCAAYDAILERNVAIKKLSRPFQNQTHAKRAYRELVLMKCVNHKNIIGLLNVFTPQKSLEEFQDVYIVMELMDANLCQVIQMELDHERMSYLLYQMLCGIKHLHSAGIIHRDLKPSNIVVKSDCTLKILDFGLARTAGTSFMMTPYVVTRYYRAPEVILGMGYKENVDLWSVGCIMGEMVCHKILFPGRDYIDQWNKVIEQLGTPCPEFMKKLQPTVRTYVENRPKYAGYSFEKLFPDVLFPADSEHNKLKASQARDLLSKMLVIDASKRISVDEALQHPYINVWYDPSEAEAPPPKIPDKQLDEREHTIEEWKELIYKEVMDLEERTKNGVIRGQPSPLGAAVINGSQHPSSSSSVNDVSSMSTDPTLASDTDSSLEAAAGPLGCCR
Protein-tyrosine kinase 2-beta, sequence (Q14289 whole entry): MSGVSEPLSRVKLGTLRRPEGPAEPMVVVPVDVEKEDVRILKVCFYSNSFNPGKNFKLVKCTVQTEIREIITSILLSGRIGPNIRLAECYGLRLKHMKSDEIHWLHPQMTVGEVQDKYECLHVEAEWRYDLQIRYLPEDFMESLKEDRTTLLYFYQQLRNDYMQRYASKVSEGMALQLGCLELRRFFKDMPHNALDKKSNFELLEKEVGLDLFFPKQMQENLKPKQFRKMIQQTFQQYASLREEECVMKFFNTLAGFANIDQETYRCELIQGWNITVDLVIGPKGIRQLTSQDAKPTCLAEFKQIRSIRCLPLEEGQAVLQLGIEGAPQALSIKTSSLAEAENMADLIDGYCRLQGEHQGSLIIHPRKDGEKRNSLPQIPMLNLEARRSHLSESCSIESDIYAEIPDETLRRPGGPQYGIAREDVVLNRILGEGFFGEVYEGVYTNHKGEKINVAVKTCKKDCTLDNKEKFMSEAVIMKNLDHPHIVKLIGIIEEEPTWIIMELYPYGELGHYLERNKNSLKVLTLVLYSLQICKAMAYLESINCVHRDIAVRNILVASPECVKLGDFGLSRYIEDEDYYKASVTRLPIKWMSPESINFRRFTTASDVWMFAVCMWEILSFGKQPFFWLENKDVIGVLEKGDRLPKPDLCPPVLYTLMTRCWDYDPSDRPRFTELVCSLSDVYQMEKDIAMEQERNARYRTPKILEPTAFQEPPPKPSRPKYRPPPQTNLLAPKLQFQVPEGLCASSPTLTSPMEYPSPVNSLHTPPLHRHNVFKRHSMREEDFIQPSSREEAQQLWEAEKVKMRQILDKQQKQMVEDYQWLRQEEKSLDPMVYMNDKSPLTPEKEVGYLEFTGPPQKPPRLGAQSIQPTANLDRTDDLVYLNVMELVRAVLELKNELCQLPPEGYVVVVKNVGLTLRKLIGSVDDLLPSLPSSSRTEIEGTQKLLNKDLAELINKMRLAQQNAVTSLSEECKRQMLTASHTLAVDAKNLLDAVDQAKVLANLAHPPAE

| Kd [1] | Kd [2] | Kd [3] | Kd [4] | Kd [5] | Kd [6] | Kd [7] | Kd [8] | Kd [9] | Kd [10] | Kd [11] | Kd [12] | Kd [13] | Compound |
| --- | --- | --- | --- | --- | --- | --- | --- | --- | --- | --- | --- | --- | --- |
| > 30 µM (inactive) | > 30 µM (inactive) | > 30 µM (inactive) | > 30 µM (inactive) | > 30 µM (inactive) | > 30 µM (inactive) | > 30 µM (inactive) | > 30 µM (inactive) | > 30 µM (inactive) | > 30 µM (inactive) | > 30 µM (inactive) | > 30 µM (inactive) | > 30 µM (inactive) | Cc1ccc(C(=O)Nc2ccc(Oc3cc4cnn(C)c4cc3-c3cn[nH]c3)c(F)c2)c(=O)n1-c1ccc(F)cc1 [MERESTINIB] |
| > 30 µM (inactive) | > 30 µM (inactive) | > 30 µM (inactive) | > 30 µM (inactive) | > 30 µM (inactive) | > 30 µM (inactive) | > 30 µM (inactive) | > 30 µM (inactive) | > 30 µM (inactive) | > 30 µM (inactive) | > 30 µM (inactive) | > 30 µM (inactive) | > 30 µM (inactive) | O=C(NOC[C@H](O)CO)c1ccc(F)c(F)c1Nc1ccc(I)cc1F [MIRDAMETINIB] |
| > 30 µM (inactive) | > 30 µM (inactive) | > 30 µM (inactive) | > 30 µM (inactive) | > 30 µM (inactive) | > 30 µM (inactive) | > 30 µM (inactive) | > 30 µM (inactive) | > 30 µM (inactive) | > 30 µM (inactive) | > 30 µM (inactive) | > 30 µM (inactive) | > 30 µM (inactive) | COc1cccc2cc(-c3nc([C@H]4CC[C@H](C(=O)O)CC4)n4ncnc(N)c34)[nH]c12 [OSI-027] |
| > 30 µM (inactive) | > 30 µM (inactive) | > 30 µM (inactive) | > 30 µM (inactive) | > 30 µM (inactive) | > 30 µM (inactive) | > 30 µM (inactive) | > 30 µM (inactive) | > 30 µM (inactive) | > 30 µM (inactive) | > 30 µM (inactive) | > 30 µM (inactive) | > 30 µM (inactive) | O=C(Nc1ccc(OC(F)(F)F)cc1)c1sccc1NCc1ccnc2ccccc12 [OSI-930] |
| > 30 µM (inactive) | > 30 µM (inactive) | > 30 µM (inactive) | > 30 µM (inactive) | > 30 µM (inactive) | > 30 µM (inactive) | > 30 µM (inactive) | > 30 µM (inactive) | > 30 µM (inactive) | > 30 µM (inactive) | > 30 µM (inactive) | > 30 µM (inactive) | > 30 µM (inactive) | FC(F)(F)c1ccc(CNc2ccc(Cc3c[nH]c4ncc(Cl)cc34)cn2)cn1 [PEXIDARTINIB] |
| > 30 µM (inactive) | > 30 µM (inactive) | > 30 µM (inactive) | > 30 µM (inactive) | > 30 µM (inactive) | > 30 µM (inactive) | > 30 µM (inactive) | > 30 µM (inactive) | > 30 µM (inactive) | > 30 µM (inactive) | > 30 µM (inactive) | > 30 µM (inactive) | > 30 µM (inactive) | O=C(NC[C@H](O)CO)c1ccncc1Nc1ccc(I)cc1F [PIMASERTIB] |
| > 30 µM (inactive) | > 30 µM (inactive) | > 30 µM (inactive) | > 30 µM (inactive) | > 30 µM (inactive) | > 30 µM (inactive) | > 30 µM (inactive) | > 30 µM (inactive) | > 30 µM (inactive) | > 30 µM (inactive) | > 30 µM (inactive) | > 30 µM (inactive) | > 30 µM (inactive) | C=CC(=O)Nc1cccc(Nc2nc(Nc3ccc(N4CCN(C(C)=O)CC4)cc3OC)ncc2C(F)(F)F)c1 [ROCILETINIB] |

| Compound | Kd [1] | Kd [2] | Kd [3] | Kd [4] | Kd [5] | Kd [6] | Kd [7] | Kd [8] | Kd [9] | Kd [10] | Kd [11] | Kd [12] | Kd [13] |
| --- | --- | --- | --- | --- | --- | --- | --- | --- | --- | --- | --- | --- | --- |
| C=CC(=O)Nc1cc(Nc2nccc(-c3cn(C)c4ccccc34)n2)c(OC)cc1N(C)CCN(C)C [OSIMERTINIB] | > 30 µM (inactive) | > 30 µM (inactive) | > 30 µM (inactive) | > 30 µM (inactive) | > 30 µM (inactive) | > 30 µM (inactive) | > 30 µM (inactive) | > 30 µM (inactive) | > 30 µM (inactive) | > 30 µM (inactive) | > 30 µM (inactive) | > 30 µM (inactive) | > 30 µM (inactive) |
| COc1cc(F)c(F)c(Nc2ccc(I)cc2F)c1NS(=O)(=O)C1(C[C@H](O)CO)CC1 [REFAMETINIB] | > 30 µM (inactive) | > 30 µM (inactive) | > 30 µM (inactive) | > 30 µM (inactive) | > 30 µM (inactive) | > 30 µM (inactive) | > 30 µM (inactive) | > 30 µM (inactive) | > 30 µM (inactive) | > 30 µM (inactive) | > 30 µM (inactive) | > 30 µM (inactive) | > 30 µM (inactive) |
| COCCN1CCN(Cc2ccc(-c3n[nH]c4c3C(=O)c3c(NC(=O)NN5CCOCC5)cccc3-4)cc2)CC1 [RGB-286638] | > 30 µM (inactive) | > 30 µM (inactive) | 0.515 µM | 1.22 µM (active) | > 30 µM (inactive) | > 30 µM (inactive) | > 30 µM (inactive) | 0.731 µM (active) | > 30 µM (inactive) | > 30 µM (inactive) | > 30 µM (inactive) | > 30 µM (inactive) | > 30 µM (inactive) |
| C=CCN(/C=C1/C(=O)O[C@H](COC)[C@@]2(C)C1=C(O)C(=O)C1=C2[C@H](OC(C)=O)C[C@]2(C)C(=O)CC[C@@H]12)CC=C [SONOLISIB] | > 30 µM (inactive) | > 30 µM (inactive) | > 30 µM (inactive) | > 30 µM (inactive) | > 30 µM (inactive) | > 30 µM (inactive) | > 30 µM (inactive) | > 30 µM (inactive) | > 30 µM (inactive) | > 30 µM (inactive) | > 30 µM (inactive) | > 30 µM (inactive) | > 30 µM (inactive) |
